The subject of the assay is γ-secretase. Briefly: Cellular γ-secretase assay (inhibition of Aβ42 secretion, AlphaLisa). The assay is classed as cell-based. To be noted: Human neuroglioma H4 cells overexpressing human APP695 Swedish double mutation; 24 hr compound incubation; secreted Aβ42 in supernatant. How it is done: Cellular γ-Secretase Assay
Human neuroglioma H4 cells overexpressing human APP695 with the Swedish double mutation (K595N/M596L) were plated at 30,000 cells/well/100 μl in 96-well plates in IMDM media containing 10% FCS, 0.2 mg/l Hygromycin B and incubated at 37° C., 5% CO2.
3-4 hr post plating, compounds are a diluted in media and 50 μl is added as 1.5-fold concentrate to achieve the final concentration. Compound incubation is performed for 24 hr. Final doses typically range from 4 μM down to 0.0013 μM in half-log steps resulting in a eight point dose response curve.
Appropriate controls using vehicle only and reference compound were applied to this assay. The final concentration of Me2SO was 0.4%.
After incubation at 37° C., 5% CO2, the supernatant was subjected to quantification of secreted Aβ42 by the means of an AlphaLisa assay kit (Human Amyloid beta 1-42 Kit: Cat # AL203C, Perkin Elmer). 20 μl of the cell culture supernatant was transferred to an assay plate. Then 10 μl of a mixture of the AlphaLisa coupled capture antibody and the biotinylated detection antibody was added and incubated for 3 hours at room temperature while softly shaking the assay plate. After a further addition of 20 μl of the Donor beads the assay plate was incubated for 30 min at room temperature and constant shaking without exposure to direct light.
The assay plate was then read on a Paradigm AlphaLisa Reader using the build-in program with excitation at 680 nm and emission at […].
The measured signals were then used to calculate IC50 values for inhibition of Aβ42 secretion by nonlinear regression fit analysis using XLfit 5.3 software (IDBS).
(In general: In Alpha technology, singlet oxygen from a donor bead excites a nearby acceptor bead.)
Take `Fc1ccc(N2CCCn3nc(N[C@@H]4[C@@H]5CC[C@H]4CN(c4ccnc(C(F)(F)F)c4)C5)nc32)cc1F` [Example 1, 4-(3,4-difluorophenyl)-N-[(1R,5S,8S)-3-[2-(trifluoromethyl)-4-pyridyl]-3-azabicyclo[3.2.1]octan-8-yl]-6,7-dihydro-5H-[1,2,4]triazolo[1,5-a]pyrimidin-2-amine]: a half-maximal effect (EC50) was put at 15.8 nM. Take `Fc1ccc(N2CCCn3nc(N[C@@H]4[C@@H]5CC[C@H]4CN(c4ccnc(Cl)c4)C5)nc32)cc1F` [Example 2, N-[(1R,5S,8S)-3-(2-chloro-4-pyridyl)-3-azabicyclo[3.2.1]octan-8-yl]-4-(3,4-difluorophenyl)-6,7-dihydro-5H-[1,2,4]triazolo[1,5-a]pyrimidin-2-amine]: the EC50 – broadly, the midpoint of the concentration-response curve – turned out to be 5.9 nM.

With `Cc1cc(N2C[C@H]3CC[C@@H](C2)[C@@H]3Nc2nc3n(n2)CCCN3c2ccc(F)c(F)c2)ncn1` [Example 3, 4-(3,4-difluorophenyl)-N-[(1R,5S,8S)-3-(6-methylpyrimidin-4-yl)-3-azabicyclo[3.2.1]octan-8-yl]-6,7-dihydro-5H-[1,2,4]triazolo[1,5-a]pyrimidin-2-amine], the concentration for a half-maximal effect (EC50) is 26.4 nM. For `Fc1ccc(N2CCn3nc(N[C@@H]4[C@@H]5CC[C@H]4CN(c4ccnc(C(F)(F)F)c4)C5)nc32)cc1F` [Example 4, 4-(3,4-difluorophenyl)-N-[(1R,5S,8S)-3-[2-(trifluoromethyl)-4-pyridyl]-3-azabicyclo[3.2.1]octan-8-yl]-5,6-dihydroimidazo[1,2-b][1,2,4]triazol-2-amine] the value was 89.2 nM; for `Cc1cc(N2C[C@H]3CC[C@@H](C2)[C@@H]3Nc2nc3n(n2)CCN3c2ccc(F)c(F)c2)ncn1` [Example 5, 4-(3,4-difluorophenyl)-N-[(1R,5S,8S)-3-(6-methylpyrimidin-4-yl)-3-azabicyclo[3.2.1]octan-8-yl]-5,6-dihydroimidazo[1,2-b][1,2,4]triazol-2-amine], 35.6 nM; for `FC(F)(F)c1ccc(N2CCCn3nc(N[C@@H]4[C@@H]5CC[C@H]4CN(c4ccnc(C(F)(F)F)c4)C5)nc32)cc1` [Example 6, 4-[4-(trifluoromethyl)phenyl]-N-[(1R,5S,8S)-3-[2-(trifluoromethyl)-4-pyridyl]-3-azabicyclo[3.2.1]octan-8-yl]-6,7-dihydro-5H-[1,2,4]triazolo[1,5-a]pyrimidin-2-amine], 21.4 nM. For the compound `FC(F)(F)c1ccc(N2CCCCn3nc(N[C@@H]4[C@@H]5CC[C@H]4CN(c4ccnc(C(F)(F)F)c4)C5)nc32)cc1` [Example 7, 4-[4-(trifluoromethyl)phenyl]-N-[(1R,5S,8S)-3-[2-(trifluoromethyl)-4-pyridyl]-3-azabicyclo[3.2.1]octan-8-yl]-5,6,7,8-tetrahydro-[1,2,4]triazolo[1,5-a][1,3]diazepin-2-amine], the concentration giving a half-maximal response (EC50) was 30.2 nM. As for `Cc1cc(N2C[C@H]3CC[C@@H](C2)[C@@H]3Nc2nc3n(n2)CCCN3c2ccc(C(F)(F)F)cc2)ncn1` [Example 8, N-[(1R,5S,8S)-3-(6-methylpyrimidin-4-yl)-3-azabicyclo[3.2.1]octan-8-yl]-4-[4-(trifluoromethyl)phenyl]-6,7-dihydro-5H-[1,2,4]triazolo[1,5-a]pyrimidin-2-amine], the figure is 11.7 nM. Compound `Cc1cc(N2C[C@H]3CC[C@@H](C2)[C@@H]3Nc2nc3n(n2)CCCCN3c2ccc(C(F)(F)F)cc2)ncn1` [Example 9, N-[(1R,5S,8S)-3-(6-methylpyrimidin-4-yl)-3-azabicyclo[3.2.1]octan-8-yl]-4-[4-(trifluoromethyl)phenyl]-5,6,7,8-tetrahydro-[1,2,4]triazolo[1,5-a][1,3]diazepin-2-amine] registered an EC50 of 19.2 nM. In turn, `Cc1ccc(N2CCCn3nc(N[C@@H]4[C@@H]5CC[C@H]4CN(c4ccnc(C(F)(F)F)c4)C5)nc32)cc1F` [Example 10, 4-(3-fluoro-4-methyl-phenyl)-N-[(1R,5S,8S)-3-[2-(trifluoromethyl)-4-pyridyl]-3-azabicyclo[3.2.1]octan-8-yl]-6,7-dihydro-5H-[1,2,4]triazolo[1,5-a]pyrimidin-2-amine] yielded an EC50 of 31.2 nM. For `Cc1cc(N2C[C@H]3CC[C@@H](C2)[C@@H]3Nc2nc3n(n2)CCCN3c2ccc(C)c(F)c2)ncn1` [Example 11, 4-(3-fluoro-4-methyl-phenyl)-N-[(1R,5S,8S)-3-(6-methylpyrimidin-4-yl)-3-azabicyclo[3.2.1]octan-8-yl]-6,7-dihydro-5H-[1,2,4]triazolo[1,5-a]pyrimidin-2-amine] the value was 27.8 nM; for `Cc1cc(N2C[C@H]3CC[C@@H](C2)[C@@H]3Nc2nc3n(n2)CCN3c2ccc(C(F)(F)F)cc2)ncn1` [Example 12, N-[(1R,5S,8S)-3-(6-methylpyrimidin-4-yl)-3-azabicyclo[3.2.1]octan-8-yl]-4-[4-(trifluoromethyl)phenyl]-5,6-dihydroimidazo[1,2-b][1,2,4]triazol-2-amine], 26.8 nM; for `Cc1ccc(N2CCCn3nc(N[C@@H]4[C@@H]5CC[C@H]4CN(c4cc(Cl)ncn4)C5)nc32)cc1F` [Example 13, N-[(1R,5S,8S)-3-(6-chloropyrimidin-4-yl)-3-azabicyclo[3.2.1]octan-8-yl]-4-(3-fluoro-4-methyl-phenyl)-6,7-dihydro-5H-[1,2,4]triazolo[1,5-a]pyrimidin-2-amine], 11.4 nM. The compound `COc1cc(N2C[C@H]3CC[C@@H](C2)[C@@H]3Nc2nc3n(n2)CCCN3c2ccc(F)c(F)c2)ncn1` [Example 14, 4-(3,4-difluorophenyl)-N-[(1R,5S,8S)-3-(6-methoxypyrimidin-4-yl)-3-azabicyclo[3.2.1]octan-8-yl]-6,7-dihydro-5H-[1,2,4]triazolo[1,5-a]pyrimidin-2-amine] yielded a half-maximal effective concentration (EC50) of 15.5 nM. In the case of `Cc1noc(N2C[C@H]3CC[C@@H](C2)[C@@H]3Nc2nc3n(n2)CCCN3c2ccc(F)c(F)c2)n1` [Example 15, 4-(3,4-difluorophenyl)-N-[(1R,5S,8S)-3-(3-methyl-1,2,4-oxadiazol-5-yl)-3-azabicyclo[3.2.1]octan-8-yl]-6,7-dihydro-5H-[1,2,4]triazolo[1,5-a]pyrimidin-2-amine], the response was half-maximal at 30.6 nM (EC50). As for `Fc1ccc(N2CCCn3nc(N[C@@H]4[C@@H]5CC[C@H]4CN(c4cnnc(Cl)c4)C5)nc32)cc1F` [Example 16, N-[(1R,5S,8S)-3-(6-chloropyridazin-4-yl)-3-azabicyclo[3.2.1]octan-8-yl]-4-(3,4-difluorophenyl)-6,7-dihydro-5H-[1,2,4]triazolo[1,5-a]pyrimidin-2-amine], the figure is 17.2 nM. For `Fc1ccc(N2CCCn3nc(N[C@@H]4[C@@H]5CC[C@H]4CN(c4cc(Cl)ncn4)C5)nc32)cc1F` [Example 17, N-[(1R,5S,8S)-3-(6-chloropyrimidin-4-yl)-3-azabicyclo[3.2.1]octan-8-yl]-4-(3,4-difluorophenyl)-6,7-dihydro-5H-[1,2,4]triazolo[1,5-a]pyrimidin-2-amine] the value was 58 nM; for `COc1cc(N2C[C@H]3CC[C@@H](C2)[C@@H]3Nc2nc3n(n2)CCCN3c2ccc(F)c(F)c2)cnn1` [Example 18, 4-(3,4-difluorophenyl)-N-[(1R,5S,8S)-3-(6-methoxypyridazin-4-yl)-3-azabicyclo[3.2.1]octan-8-yl]-6,7-dihydro-5H-[1,2,4]triazolo[1,5-a]pyrimidin-2-amine], 26.4 nM; for `Cc1ncnc(N2C[C@H]3CC[C@@H](C2)[C@@H]3Nc2nc3n(n2)CCCN3c2ccc(F)c(F)c2)c1F` [Example 19, 4-(3,4-difluorophenyl)-N-[(1R,5S,8S)-3-(5-fluoro-6-methyl-pyrimidin-4-yl)-3-azabicyclo[3.2.1]octan-8-yl]-6,7-dihydro-5H-[1,2,4]triazolo[1,5-a]pyrimidin-2-amine], 13.9 nM.

Turning to `Cc1cc(N2C[C@H]3CC[C@@H](C2)[C@@H]3Nc2nc3n(n2)CCCN3c2ccc(F)c(F)c2)cnn1` [Example 20, 4-(3,4-difluorophenyl)-N-[(1R,5S,8S)-3-(6-methylpyridazin-4-yl)-3-azabicyclo[3.2.1]octan-8-yl]-6,7-dihydro-5H-[1,2,4]triazolo[1,5-a]pyrimidin-2-amine], the EC50 is 23.1 nM.

As for `COc1cc(N2C[C@H]3CC[C@@H](C2)[C@@H]3Nc2nc3n(n2)CCCN3c2ccc(F)c(F)c2)ccn1` [Example 21, 4-(3,4-difluorophenyl)-N-[(1R,5S,8S)-3-(2-methoxy-4-pyridyl)-3-azabicyclo[3.2.1]octan-8-yl]-6,7-dihydro-5H-[1,2,4]triazolo[1,5-a]pyrimidin-2-amine], the midpoint of the response, the EC50, lay at 14.7 nM. Compound `Fc1ccc(N2CCCCn3nc(N[C@@H]4[C@@H]5CC[C@H]4CN(c4ccnc(C(F)(F)F)c4)C5)nc32)cc1F` [Example 22, 4-(3,4-difluorophenyl)-N-[(1R,5S,8S)-3-[2-(trifluoromethyl)-4-pyridyl]-3-azabicyclo[3.2.1]octan-8-yl]-5,6,7,8-tetrahydro-[1,2,4]triazolo[1,5-a][1,3]diazepin-2-amine] came in with an EC50 of 34.8 nM.

The record behind these values is US10899766B2, “Bridged piperidine derivatives” (Hoffmann-La Roche Inc., priority 2016, dated 2021).
